As usually defined, the Ki is the dissociation constant of the complex between target and ligand, obtained from inhibition or displacement. Read a low Ki as higher affinity.

Here are results for eight compounds from US6004976A, “Thrombin inhibitors” (Merck & Co., Inc., priority 1998, dated 1999).

The assay addresses T1, human α-thrombin (Homo sapiens, UniProt P00734).
T1 construct: human α-thrombin
Description: In vitro assay for determining proteinase inhibition (thrombin). Format: biochemical. The conditions noted are these: 25° C., 0.05 M TRIS buffer pH 7.4, 0.15 M NaCl, 0.1% PEG. The procedure:
In Vitro Assay for Determining Proteinase Inhibition
Assays of human α-thrombin and human trypsin were performed at 25° C. in 0.05 M TRIS buffer pH 7.4, 0.15 M NaCl, 0.1% PEG. Trypsin assays also contained 1 mM CaCl2.
In assays wherein rates of hydrolysis of a p-nitroanilide (pna) substrate were determined, a Thermomax 96-well plate reader was used to measure (at 405 nm) the time dependent appearance of p-nitroaniline. sar-PR-pna (sarcosine-Pro-Arg-p-nitroanilide) was used to assay human α-thrombin (Km=125 μM) and human trypsin (Km=59 μM). p-Nitroanilide substrate concentration was determined from measurements of absorbance at 342 nm using an extinction coefficient of 8270 cm-1M-1.
In certain studies with potent inhibitors (Ki<10 nM) where the degree of inhibition of thrombin was high, a more sensitive activity assay was employed. In this assay the rate of thrombin catalyzed hydrolysis of the fluorogenic substrate Z-GPR-afc (Cbz-Gly-Pro-Arg-7-amino-4-trifluoromethylcoumarin) (Km=27 μM) was determined from the increase in fluorescence at 500 nm (excitation at 400 nm) associated with production of 7-amino-4-trifluoromethyl coumarin. Concentrations of stock solutions of Z-GPR-afc were determined from measurements of absorbance at 380 nm of the 7-amino-4-trifluoromethyl coumarin produced upon complete hydrolysis of an aliquot of the stock solution by thrombin.
Activity assays were performed by diluting a stock solution of substrate at least tenfold to a final concentration≤0.5 Km into a solution containing enzyme or enzyme equilibrated with inhibitor. Times required to achieve equilibration between enzyme and inhibitor were determined in control experiments. Initial velocities of product formation in the absence (Vo) or presence of inhibitor (Vi) were measured. Assuming competitive inhibition, and that unity is negligible compared Km/[S], [I]/e, and [I]/e (where [S], [I], and e respectively represent the total concentrations, of substrate, inhibitor and enzyme), the equilibrium constant (Ki) for dissociation of the inhibitor from the enzyme can be obtained from the dependence of Vo/Vi on [I] shown in equation 1.
The compound `Cc1nc(N)ccc1CNC(=O)Cn1c(C)cc2c([nH]c(=O)n2CCc2ccccc2)c1=O` returned a Ki of under 10 nM.
With `Cc1nc(N)ccc1CNC(=O)Cn1c(C)cc2c([nH]c(=O)n2CCc2ccccn2)c1=O`, the Ki was under 10 nM.
In turn, `Cc1nc(N)ccc1CNC(=O)Cn1c(C)cc2c([nH]c(=O)n2CC2CCCCC2)c1=O` came in with a Ki of over 10 nM.
With `Cc1nc(N)ccc1CNC(=O)Cn1c(C)cc2c([nH]c(=O)n2CCC(C)(C)C)c1=O`, the Ki is over 10 nM.
`Cc1nc(N)ccc1CNC(=O)Cn1c(C)cc2c([nH]c(=O)n2[C@H](C)c2ccccc2)c1=O` registered an inhibitory constant (Ki) of over 10 nM.
In turn, `Cc1nc(N)ccc1CNC(=O)Cn1c(C)cc2c([nH]c(=O)n2CC2CC2)c1=O` gave a Ki of over 10 nM.
The figure for `Cc1nc(N)ccc1CNC(=O)Cn1c(C)cc2c([nH]c(=O)n2CCC(C)C)c1=O` is under 10 nM; for `Cc1cc2c([nH]c(=O)n2CCC(C)C)c(=O)n1CC(=O)NCc1ccccc1OCC(=O)NC1CC1` it is over 10 nM.
